Data from US12252524B2, “GIP/GLP1 co-agonist compounds” (Eli Lilly and Company, priority 2018, dated 2025).
Numbered stars: 1 amine (or outer) side, 2 acyl side, 3 side chain; on linkers, the order of the positions; unused ones are H or OH. Square brackets hold non-standard residues; d marks the D form. Side chains are listed from the residue outwards. Peptide text beside a SMILES is read from it. * marks the point of attachment. C20 diacid = O=C(O)CCCCCCCCCCCCCCCCCCC(=O)*; C18 diacid = O=C(O)CCCCCCCCCCCCCCCCC(=O)*; γGlu = O=C(O)[C@H](CCC(=O)[*:2])N[*:1]; αMeY = C[C@](N)(Cc1ccc(O)cc1)C(=O)O; αMeL = CC(C)C[C@](C)(N)C(=O)O; Dab = NCC[C@H](N)C(=O)O; AEEA = NCCOCCOCC(=O)O; Aib = CC(C)(N)C(=O)O

What was measured:
human GLP-1R [1] = biological target: T1, human GLP-1R (Homo sapiens, UniProt P43220); test: GLP-1R CHO cell β-arrestin recruitment assay; type: cell-based; set-up: host or cells: CHO-K1 PathHunter cells, assay-ready frozen; conditions: for EC50: CHO-K1 cells; for hGLP1R B-Arrestin2 % Top: normalized to GLP-1 maximum control
T1 sequence (P43220 24-463): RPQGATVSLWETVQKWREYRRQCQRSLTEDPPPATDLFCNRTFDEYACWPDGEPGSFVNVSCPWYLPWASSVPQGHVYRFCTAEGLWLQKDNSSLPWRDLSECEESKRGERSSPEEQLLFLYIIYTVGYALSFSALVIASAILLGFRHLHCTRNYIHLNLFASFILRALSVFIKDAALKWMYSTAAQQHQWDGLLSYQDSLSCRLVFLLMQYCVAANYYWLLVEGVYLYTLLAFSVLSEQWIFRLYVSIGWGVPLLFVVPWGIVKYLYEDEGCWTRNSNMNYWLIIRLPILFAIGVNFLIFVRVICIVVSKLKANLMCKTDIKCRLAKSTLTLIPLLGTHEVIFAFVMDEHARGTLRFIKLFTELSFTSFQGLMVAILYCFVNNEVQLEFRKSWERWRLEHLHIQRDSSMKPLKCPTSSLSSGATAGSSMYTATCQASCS
Outline: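 Peptide-induced β-arrestin-2 recruitment measured by enzyme-fragment complementation luminescence after 90 min at 37 °C plus 60 min detection at RT.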

[2] = biological target: T2, gastric inhibitory peptide receptor (GIPR) (Homo sapiens, UniProt P48546); test: cAMP pharmacological functional assay in presence of casein, hGIPR; type: cell-based; conditions: HEK293 cells expressing hGIPR, 0.1% Casein, geometric mean; read-out: hGIPR cAMP Rel EC50 nM (SEM, n)
T2 sequence (P48546 22-466): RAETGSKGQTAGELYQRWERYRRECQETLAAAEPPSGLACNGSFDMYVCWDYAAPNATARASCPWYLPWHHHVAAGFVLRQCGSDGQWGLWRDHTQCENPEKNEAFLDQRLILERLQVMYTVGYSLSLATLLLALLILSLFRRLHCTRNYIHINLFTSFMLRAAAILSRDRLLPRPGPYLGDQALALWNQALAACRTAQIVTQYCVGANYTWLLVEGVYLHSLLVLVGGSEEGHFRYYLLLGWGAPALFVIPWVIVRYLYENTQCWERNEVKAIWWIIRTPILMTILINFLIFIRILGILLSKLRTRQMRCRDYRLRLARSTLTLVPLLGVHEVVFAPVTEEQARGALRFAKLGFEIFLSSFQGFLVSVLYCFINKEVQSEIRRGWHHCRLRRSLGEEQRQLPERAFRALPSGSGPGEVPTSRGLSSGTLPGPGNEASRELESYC

human GLP-1R [3] = biological target: T1, human GLP-1R; test: GLP-1R HEK293 cell membrane [35S]GTPγS binding assay; type: biochemical; set-up: expressed in transfected cells; host or cells: HEK293 cells expressing human GLP-1R; membranes; conditions: HEK293 cell membranes expressing human GLP-1R, [35S]GTPγS binding; read-out: hGLP1R GTPgS Rel EC50 nM (SEM, n)
Outline: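 Agonist-driven Gαs activation read as [35S]GTPγS ([…]) binding to receptor-expressing HEK293 membranes, 30 min at room temperature, pH 7.4. Detection by anti-Gαs immunocapture on scintillation beads; EC50 derived from four-parameter logistic concentration-response fit.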

[4] = biological target: human GLP-1 receptor (GLP-1R) (Homo sapiens, UniProt P43220); test: cAMP pharmacological functional assay in presence of casein, hGLP-1R; type: cell-based; conditions: HEK293 cells expressing hGLP-1R, 0.1% Casein, geometric mean; read-out: hGLP1R cAMP Rel EC50 nM (SEM, n)
Sequence of human GLP-1 receptor (GLP-1R) (P43220 24-463): as the sequence (P43220 24-463) above

human GIP receptor = biological target: T3, human GIP receptor (Homo sapiens, UniProt P48546); test: [125I]-GIP binding (SPA), human GIP receptor; conditions: read-out: hGIPR Ki, nM (SEM, n)
T3 construct: expressed in transfected cells; crude membranes
T3 sequence (P48546 22-466): T2 sequence (P48546 22-466)

human Gcg receptor = biological target: T4, human Gcg receptor (Homo sapiens, UniProt P47871); test: [125I]-Glucagon binding (SPA), human Gcg receptor; conditions: read-out: hGLcgR Ki, nM (SEM, n)
T4 construct: expressed in transfected cells; crude membranes
T4 sequence (P47871 26-477): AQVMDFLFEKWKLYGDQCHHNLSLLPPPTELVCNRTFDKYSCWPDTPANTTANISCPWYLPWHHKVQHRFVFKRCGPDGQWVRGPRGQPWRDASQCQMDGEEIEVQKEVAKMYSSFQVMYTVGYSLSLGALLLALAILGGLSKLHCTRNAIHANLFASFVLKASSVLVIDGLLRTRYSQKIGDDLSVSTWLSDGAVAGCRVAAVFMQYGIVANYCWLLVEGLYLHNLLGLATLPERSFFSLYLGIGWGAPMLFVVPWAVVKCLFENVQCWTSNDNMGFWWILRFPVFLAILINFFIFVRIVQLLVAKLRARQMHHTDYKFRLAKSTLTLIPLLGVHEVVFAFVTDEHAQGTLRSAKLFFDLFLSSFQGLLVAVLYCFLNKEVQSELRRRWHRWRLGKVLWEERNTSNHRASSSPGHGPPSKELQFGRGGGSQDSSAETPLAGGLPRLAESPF
Outline: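 Crude membranes from cells expressing the receptor, prepared by hypotonic lysis in 50 mM Tris HCl pH 7.5 with protease inhibitors, homogenization and differential centrifugation, were used in a WGA-bead SPA. Binding buffer: 25 mM HEPES pH 7.4, 2.5 mM CaCl2, 1 mM MgCl2, bacitracin, Tween-20.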

[5] = PathHunter β-arrestin-2 recruitment, 0.1% casein, read-out: hGLP1R B-Arrestin2 Rel EC50 uM (SEM, n)

Row | SMILES | EC50 (human GLP-1R [1]; [5]) | hGLP1R B-Arrestin2 % Top (human GLP-1R [1]) | EC50 [2] | EC50 (human GLP-1R [3]) | EC50 [4] | Ki (human GIP receptor) | EC50 (human GLP-1R [1]; 0.1% w/v hydrolyzed Casein, read-out: hGLP1R B-Arrestin2 Rel EC50) | Ki (human Gcg receptor)
1 | CC[C@H](C)[C@H](NC(=O)[C@H](CC(C)C)NC(=O)[C@H](Cc1ccc(O)cc1)NC(=O)[C@H](CCC(=O)O)NC(=O)[C@@H](NC(=O)[C@H](Cc1ccccc1)NC(=O)[C@H](CCC(=O)O)NC(=O)C(C)(C)NC(=O)[C@H](CCC(N)=O)NC(=O)[C@H](C)NC(=O)[C@H](CCCCNC(=O)COCCOCCNC(=O)COCCOCCNC(=O)CC[C@H](NC(=O)CCCCCCCCCCCCCCCCCCC(=O)O)C(=O)O)NC(=O)[C@H](CCN)NC(=O)[C@H](CC(=O)O)NC(=O)[C@H](CC(C)C)NC(=O)[C@](C)(CC(C)C)NC(=O)[C@@H](NC(=O)[C@H](CO)NC(=O)[C@H](Cc1ccc(O)cc1)NC(=O)[C@H](CC(=O)O)NC(=O)[C@H](CO)NC(=O)[C@@H](NC(=O)[C@H](Cc1ccccc1)NC(=O)[C@@H](NC(=O)CNC(=O)[C@H](CCC(=O)O)NC(=O)C(C)(C)NC(=O)[C@H](N)Cc1ccc(O)cc1)[C@@H](C)O)[C@@H](C)O)[C@@H](C)CC)[C@@H](C)CC)C(=O)N[C@@H](C)C(=O)NCC(=O)NCC(=O)N1CCC[C@H]1C(=O)N[C@@H](CO)C(=O)N[C@@H](CO)C(=O)NCC(=O)N[C@@H](C)C(=O)N1CCC[C@H]1C(=O)N1CCC[C@H]1C(=O)N1CCC[C@H]1C(=O)N[C@@H](CO)C(N)=O [Example 350] (H-[dY][Aib]EGTFTSDYSI[αMeL]LD[Dab]K([AEEA-AEEA-γGlu-C20 diacid])AQ[Aib]EFIEYLIAGGPSSGAPPPS-NH2) | 0.0108 µM | 21.8% | 0.189 nM | 0.589 nM | 0.107 nM | – | – | –
2 | CC[C@H](C)[C@H](NC(=O)[C@H](CC(C)C)NC(=O)[C@H](Cc1ccc(O)cc1)NC(=O)[C@H](CCC(=O)O)NC(=O)[C@@H](NC(=O)[C@H](Cc1ccccc1)NC(=O)[C@H](C)NC(=O)C(C)(C)NC(=O)[C@H](CCC(N)=O)NC(=O)[C@H](C)NC(=O)[C@H](CCCCNC(=O)COCCOCCNC(=O)COCCOCCNC(=O)CC[C@H](NC(=O)CCCCCCCCCCCCCCCCCCC(=O)O)C(=O)O)NC(=O)[C@H](CCC(=O)O)NC(=O)[C@H](CC(=O)O)NC(=O)[C@H](CC(C)C)NC(=O)[C@H](CC(C)C)NC(=O)[C@@H](NC(=O)[C@H](CO)NC(=O)[C@H](Cc1ccc(O)cc1)NC(=O)[C@H](CC(=O)O)NC(=O)[C@H](CO)NC(=O)[C@@H](NC(=O)[C@H](Cc1ccccc1)NC(=O)[C@@H](NC(=O)CNC(=O)[C@H](CCC(=O)O)NC(=O)C(C)(C)NC(=O)[C@@H](N)Cc1ccc(O)cc1)[C@@H](C)O)[C@@H](C)O)[C@@H](C)CC)[C@@H](C)CC)C(=O)N[C@@H](C)C(=O)NCC(=O)NCC(=O)N1CCC[C@H]1C(=O)N[C@@H](CO)C(=O)N[C@@H](CO)C(=O)NCC(=O)N[C@@H](C)C(=O)N1CCC[C@H]1C(=O)N1CCC[C@H]1C(=O)N1CCC[C@H]1C(=O)N[C@@H](CO)C(N)=O [Example 330] (H-Y[Aib]EGTFTSDYSILLDEK([AEEA-AEEA-γGlu-C20 diacid])AQ[Aib]AFIEYLIAGGPSSGAPPPS-NH2) | > 10.9 µM | – | 0.0919 nM | 1.05 nM | 0.199 nM | 0.114 nM | > 10.9 µM | > 1050 nM
3 | CC[C@H](C)[C@H](NC(=O)[C@H](CC(C)C)NC(=O)[C@](C)(Cc1ccc(O)cc1)NC(=O)[C@H](CCC(=O)O)NC(=O)[C@@H](NC(=O)[C@H](Cc1ccccc1)NC(=O)[C@H](C)NC(=O)C(C)(C)NC(=O)[C@H](CCC(N)=O)NC(=O)[C@H](C)NC(=O)[C@H](CCCCNC(=O)COCCOCCNC(=O)COCCOCCNC(=O)CC[C@H](NC(=O)CCCCCCCCCCCCCCCCCCC(=O)O)C(=O)O)NC(=O)[C@H](CCCCN)NC(=O)[C@H](CC(=O)O)NC(=O)[C@H](CC(C)C)NC(=O)[C@](C)(CC(C)C)NC(=O)[C@@H](NC(=O)[C@H](CO)NC(=O)[C@H](Cc1ccc(O)cc1)NC(=O)[C@H](CC(=O)O)NC(=O)[C@H](CO)NC(=O)[C@@H](NC(=O)[C@H](Cc1ccccc1)NC(=O)[C@@H](NC(=O)CNC(=O)[C@H](CCC(=O)O)NC(=O)C(C)(C)NC(=O)[C@H](N)Cc1ccc(O)cc1)[C@@H](C)O)[C@@H](C)O)[C@@H](C)CC)[C@@H](C)CC)C(=O)N[C@@H](C)C(=O)NCC(=O)NCC(=O)N1CCC[C@H]1C(=O)N[C@@H](CO)C(=O)N[C@@H](CO)C(=O)NCC(=O)N[C@@H](C)C(=O)N1CCC[C@H]1C(=O)N1CCC[C@H]1C(=O)N1CCC[C@H]1C(=O)N[C@@H](CO)C(N)=O [Example 365] (H-[dY][Aib]EGTFTSDYSI[αMeL]LDKK([AEEA-AEEA-γGlu-C20 diacid])AQ[Aib]AFIE[αMeY]LIAGGPSSGAPPPS-NH2) | 0.00703 µM | 20.8% | 0.0678 nM | 0.464 nM | 0.175 nM | – | – | –
4 | CC[C@H](C)[C@H](NC(=O)[C@H](CC(C)C)NC(=O)[C@](C)(Cc1ccc(O)cc1)NC(=O)[C@H](CCC(=O)O)NC(=O)[C@@H](NC(=O)[C@H](Cc1ccccc1)NC(=O)[C@H](CCC(=O)O)NC(=O)C(C)(C)NC(=O)[C@H](CCC(N)=O)NC(=O)[C@H](C)NC(=O)[C@H](CCCCNC(=O)COCCOCCNC(=O)CC[C@H](NC(=O)CCCCCCCCCCCCCCCCCCC(=O)O)C(=O)O)NC(=O)[C@H](CCCCN)NC(=O)[C@H](CC(=O)O)NC(=O)[C@H](CC(C)C)NC(=O)[C@](C)(CC(C)C)NC(=O)[C@@H](NC(=O)[C@H](CO)NC(=O)[C@H](Cc1ccc(O)cc1)NC(=O)[C@H](CC(=O)O)NC(=O)[C@H](CO)NC(=O)[C@@H](NC(=O)[C@H](Cc1ccccc1)NC(=O)[C@@H](NC(=O)CNC(=O)[C@H](CCC(=O)O)NC(=O)C(C)(C)NC(=O)[C@H](N)Cc1ccc(O)cc1)[C@@H](C)O)[C@@H](C)O)[C@@H](C)CC)[C@@H](C)CC)C(=O)N[C@@H](C)C(=O)NCC(=O)NCC(=O)N1CCC[C@H]1C(=O)N[C@@H](CO)C(=O)N[C@@H](CO)C(=O)NCC(=O)N[C@@H](C)C(=O)N1CCC[C@H]1C(=O)N1CCC[C@H]1C(=O)N1CCC[C@H]1C(=O)N[C@@H](CO)C(N)=O [Example 372] (H-[dY][Aib]EGTFTSDYSI[αMeL]LDKK([AEEA-γGlu-C20 diacid])AQ[Aib]EFIE[αMeY]LIAGGPSSGAPPPS-NH2) | 0.00981 µM | 32.9% | 0.0781 nM | 0.379 nM | 0.365 nM | – | – | –
5 | CC[C@H](C)[C@H](NC(=O)[C@H](CC(C)C)NC(=O)[C@](C)(Cc1ccc(O)cc1)NC(=O)[C@H](CCC(=O)O)NC(=O)[C@@H](NC(=O)[C@H](Cc1ccccc1)NC(=O)[C@H](CCC(=O)O)NC(=O)C(C)(C)NC(=O)[C@H](CCC(N)=O)NC(=O)[C@H](C)NC(=O)[C@H](CCCCNC(=O)COCCOCCNC(=O)COCCOCCNC(=O)CC[C@H](NC(=O)CCCCCCCCCCCCCCCCC(=O)O)C(=O)O)NC(=O)[C@H](CCCCN)NC(=O)[C@H](CC(=O)O)NC(=O)[C@H](CC(C)C)NC(=O)[C@](C)(CC(C)C)NC(=O)[C@@H](NC(=O)[C@H](CO)NC(=O)[C@H](Cc1ccc(O)cc1)NC(=O)[C@H](CC(=O)O)NC(=O)[C@H](CO)NC(=O)[C@@H](NC(=O)[C@H](Cc1ccccc1)NC(=O)[C@@H](NC(=O)CNC(=O)[C@H](CCC(=O)O)NC(=O)C(C)(C)NC(=O)[C@H](N)Cc1ccc(O)cc1)[C@@H](C)O)[C@@H](C)O)[C@@H](C)CC)[C@@H](C)CC)C(=O)N[C@@H](C)C(=O)NCC(=O)NCC(=O)N1CCC[C@H]1C(=O)N[C@@H](CO)C(=O)N[C@@H](CO)C(=O)NCC(=O)N[C@@H](C)C(=O)N1CCC[C@H]1C(=O)N1CCC[C@H]1C(=O)N1CCC[C@H]1C(=O)N[C@@H](CO)C(N)=O [Example 374] (H-[dY][Aib]EGTFTSDYSI[αMeL]LDKK([AEEA-AEEA-γGlu-C18 diacid])AQ[Aib]EFIE[αMeY]LIAGGPSSGAPPPS-NH2) | 0.0218 µM | 34.7% | 0.0468 nM | 0.345 nM | 0.19 nM | – | – | –
